Source: ChEMBL document CHEMBL4418497, “Compositions and methods relating to inhibiting serine hyrdoxymethyltransferase 2 activity” (2016)

How the values were obtained:
[1] = molecular target: T1, Serine hydroxymethyltransferase, mitochondrial (Homo sapiens, UniProt P34897); assay: Inhibition of His-tagged human recombinant SHMT2 expressed in Escherichia coli BLR(DE3) assessed as reduction in NADPH level using L-serine, THF and NADP+ incubated for 5 mins by SHMT2-MTHFD coupled reaction based fluorescence assay; settings: read-out: pIC50 (converted)
T1 sequence (P34897 whole entry): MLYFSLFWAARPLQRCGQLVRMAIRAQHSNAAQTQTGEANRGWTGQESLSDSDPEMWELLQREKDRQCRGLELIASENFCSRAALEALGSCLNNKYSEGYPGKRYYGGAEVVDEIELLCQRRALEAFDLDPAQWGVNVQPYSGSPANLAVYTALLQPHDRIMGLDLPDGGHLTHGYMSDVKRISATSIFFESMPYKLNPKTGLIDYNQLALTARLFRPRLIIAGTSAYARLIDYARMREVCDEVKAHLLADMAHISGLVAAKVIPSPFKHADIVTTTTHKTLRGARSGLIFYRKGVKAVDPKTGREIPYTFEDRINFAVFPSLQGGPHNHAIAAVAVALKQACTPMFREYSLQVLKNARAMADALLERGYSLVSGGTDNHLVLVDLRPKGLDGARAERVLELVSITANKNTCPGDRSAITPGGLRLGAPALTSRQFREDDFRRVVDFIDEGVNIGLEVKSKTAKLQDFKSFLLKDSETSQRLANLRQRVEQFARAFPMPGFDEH

[2] = molecular target: T2, Serine hydroxymethyltransferase, mitochondrial (Homo sapiens) (UniProt P34897); assay: Inhibition of His-tagged human recombinant SHMT2 expressed in Escherichia coli BLR(DE3) assessed as reduction in NADPH level using L-serine, THF and NADP+ at 6.5 or 26.5 uM incubated for 5 mins by SHMT2-MTHFD coupled reaction based fluorescence assay relative to control
T2 sequence (whole entry): T1 sequence (P34897 whole entry)

SMILES | IC50 [1] [µM] | inhibition [2] [%]
COc1ccc(Cc2nccc3cc(OC)c(OC)cc23)cc1OC [PAPAVERINE] | 2.69 | 59.2
Cc1cc(/C=C/c2ccc3cc(N(C)C)ccc3[n+]2C)c(C)n1-c1ccccc1 | 2.57 | 88.2
CN(C)c1cc2c(Nc3ccc4c(cnn4Cc4ccccc4)c3)ncnc2cn1 [GW282974X] | 2.45 | 77.5
CNCC[C@H](Oc1cccc2ccccc12)c1cccs1 [DULOXETINE] | 6.92 | 83.8
COc1cc(NC(C)CCCN)c2ncccc2c1 (configuration not stated) [PRIMAQUINE] | 0.437 | 91.9
CCOC(=O)Nc1ccc(NCc2ccc(F)cc2)nc1N [FLUPIRTINE] | 0.933 | 86.1
CN(C)N1C(=O)c2cccc3c(Br)ccc(c23)C1=O |  | 69.8
COc1ccc2cc1Oc1ccc(cc1)C[C@H]1c3c(cc4c(c3Oc3cc5c(cc3OC)CCN(C)[C@@H]5C2)OCO4)CCN1C |  | 70.4
CC(C(=O)Nc1cccc(/N=C/c2c(O)ccc3ccccc23)c1)c1ccccc1 (configuration not stated) |  | 60.1
COc1cc2c(CCNC(C)=O)c[nH]c2cc1O |  | 92.7
CS(=O)(=O)c1ccc2ccn(O)c2c1 |  | 60.3
CNC(=O)Oc1ccc2c(c1)[C@]1(C)CCN(C)[C@@H]1N2 |  | 55.9
CC(C)C[C@H](N(C)C)C1(c2ccc(Cl)cc2)CCC1 |  | 62
COC(=O)[C@@H]1C(O)CC[C@H]2CN3CCc4c([nH]c5ccccc45)[C@@H]3C[C@@H]21 (some centres not stated) |  | 73.9
COc1cc(OC)c2c(c1Cl)OC1(C2=O)C(O)=CC(=O)CC1C (configuration not stated) |  | 77.8
COC(=O)[C@@H]1[C@H]2C[C@H]3c4[nH]c5ccccc5c4CCN3C[C@@H]2CC[C@@H]1O |  | 57.4
